Measured values taken from patent publication US8598202B2, “Aryl-hydroxyethylamino-pyrimidines and triazines as modulators of fatty acid amide hydrolase” (Janssen Pharmaceutica NV, priority 2008, dated 2013).
Structures can show the parent of a compound that is named as a salt.

Legend:
[1] = system: spasticity; settings: Baker 2001; cited from earlier work
[2] = system: thermal nociception; settings: rat; cited from earlier work
[3] = system: anxiety; settings: rats; Kathuria 2003; cited from earlier work
[4] = system: nociception; settings: rat; Kathuria 2003; cited from earlier work
[5] = target: T1, FAAH (Homo sapiens, UniProt O00519); settings: reported; cited from earlier work
T1 sequence (O00519 1-579): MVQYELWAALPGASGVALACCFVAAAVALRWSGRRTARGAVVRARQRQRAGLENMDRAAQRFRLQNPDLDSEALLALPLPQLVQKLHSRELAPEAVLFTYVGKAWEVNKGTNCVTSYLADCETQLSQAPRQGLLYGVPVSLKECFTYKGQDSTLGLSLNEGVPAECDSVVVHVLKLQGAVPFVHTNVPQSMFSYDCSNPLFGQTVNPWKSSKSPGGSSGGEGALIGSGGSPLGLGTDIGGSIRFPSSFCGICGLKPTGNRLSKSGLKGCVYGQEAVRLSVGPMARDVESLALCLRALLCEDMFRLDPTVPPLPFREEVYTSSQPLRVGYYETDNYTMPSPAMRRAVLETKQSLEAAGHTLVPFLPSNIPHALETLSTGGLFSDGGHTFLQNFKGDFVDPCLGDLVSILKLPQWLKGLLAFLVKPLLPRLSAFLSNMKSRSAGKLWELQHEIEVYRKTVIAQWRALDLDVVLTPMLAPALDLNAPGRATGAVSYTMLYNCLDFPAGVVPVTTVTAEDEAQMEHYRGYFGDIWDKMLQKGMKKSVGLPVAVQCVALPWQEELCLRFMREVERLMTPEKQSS

[6] = system: thermal nociception; settings: rats; WO 04/033652; cited from earlier work
[7] = system: acute thermal nociception; settings: rats; WO 02/087569; cited from earlier work
[8] = system: neuropathic pain; settings: rats; WO 02/087569; cited from earlier work
[9] = target: T1, FAAH; test: Assay Method 1: FAAH assay, 3H-anandamide hydrolysis in homogenate of T84 cells or SK-N-MC cells transfected with human FAAH
[10] = target: T2, Rat FAAH-1 (Rattus norvegicus, UniProt P97612); test: Assay Method 2: rat FAAH-1 assay, 3H-anandamide hydrolysis in homogenate of SK-N-MC cells transfected with rat FAAH
T2 sequence (P97612 1-579): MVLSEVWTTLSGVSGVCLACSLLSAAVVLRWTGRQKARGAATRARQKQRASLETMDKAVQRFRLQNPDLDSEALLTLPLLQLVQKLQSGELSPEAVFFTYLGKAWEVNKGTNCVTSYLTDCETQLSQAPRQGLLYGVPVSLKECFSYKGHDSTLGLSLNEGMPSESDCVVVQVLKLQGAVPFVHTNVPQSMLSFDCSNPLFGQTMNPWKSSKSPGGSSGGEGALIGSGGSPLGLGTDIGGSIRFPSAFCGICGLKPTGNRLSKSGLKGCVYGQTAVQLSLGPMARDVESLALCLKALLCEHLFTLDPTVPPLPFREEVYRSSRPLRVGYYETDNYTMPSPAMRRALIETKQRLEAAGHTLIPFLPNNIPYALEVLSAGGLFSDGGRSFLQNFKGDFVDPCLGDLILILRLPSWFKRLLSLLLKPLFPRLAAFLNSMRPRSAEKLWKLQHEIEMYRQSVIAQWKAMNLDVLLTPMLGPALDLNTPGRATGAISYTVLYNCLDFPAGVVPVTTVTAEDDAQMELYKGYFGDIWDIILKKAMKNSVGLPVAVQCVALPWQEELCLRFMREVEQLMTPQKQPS

## CCCCCCCCCCCCCCCCS(=O)(=O)F [AM374]
[1]
  reduction of spasticity in CREAE mice: significantly reduce spasticity

## NC(=O)c1cccc(-c2cccc(OC(=O)NC3CCCCC3)c2)c1 [URB-597]
[2]
  analgesic efficacy/activity in hot plate test: analgesic efficacy
[3]
  efficacy in zero plus maze model of anxiety: efficacy
[4]
  analgesic efficacy in formalin test: analgesic efficacy

## O=C(CCCCCCc1ccccc1)c1ncc(-c2ccccn2)o1 [OL-135]
[5]
  inhibition of FAAH: potent inhibitor
[2]
  analgesic efficacy/activity in hot plate test: analgesic activity
[6]
  analgesic activity in tail emersion test: analgesic activity

## Cc1nc(-c2ccccc2)c(-c2ccccc2)n1CCCCCCNC(=O)Oc1ccccc1F [BMS-1]
[7]
  analgesic effect in Hargraves test: analgesic effect
[8]
  analgesic effect in Chung spinal nerve ligation model: analgesic effect

## OC(CNc1cc(-c2ccc(C(F)(F)F)c(Cl)c2)ncn1)c1ccc(-c2ccccc2)cc1 (stereo not drawn) [Example 195, 1-Biphenyl-4-yl-2-({6-[3-chloro-4-(trifluoromethyl)phenyl]pyrimidin-4-yl}amino)ethanol]
[9]
  IC50: 10 nM
[10]
  IC50: 400 nM

## COc1ccc(C(O)CNc2cc(-c3ccc(OC(F)(F)F)cc3)ncn2)cc1 (stereo not drawn) [Example 111, 1-[4-(Methyloxy)phenyl]-2-[(6-{4-[(trifluoromethyl)oxy]phenyl}-pyrimidin-4-yl)amino]ethanol]
[9]
  IC50: 122 nM
[10]
  IC50: 220 nM

## CC(C)Sc1ccc(-c2cc(NC[C@H](O)c3ccccc3)ncn2)cc1 [Example 91, (1R)-2-[(6-{4-[(1-Methylethyl)sulfanyl]phenyl}pyrimidin-4-yl)amino]-1-phenylethanol trifluoroacetic acid salt]
[9]
  IC50: 3 nM
[10]
  IC50: 57 nM
